Assay results as given in publication PMC6219506, “Onsite GTP fuelling via DYNAMO1 drives division of mitochondria and peroxisomes” (Nature Communications, 2018).
Blank lines part the entries; values can stand above or below the compound they belong to.

Tests used:
[1] = molecular target: T1, DYNAMO1 (Cyanidioschyzon merolae, UniProt M1USP1); assay: LC-ESI-MS/MS of nucleotides (nucleoside diphosphate kinase activity); format: biochemical; conditions: 100 nM enzyme, 37 °C, 3 min
T1 construct: gene CYME_CML110C; open reading frame in pGEX6p-1, GST tag cut off with PreScission protease, E. coli XL-1 Blue; 17 kDa; tetramer
T1 sequence (M1USP1 1-153): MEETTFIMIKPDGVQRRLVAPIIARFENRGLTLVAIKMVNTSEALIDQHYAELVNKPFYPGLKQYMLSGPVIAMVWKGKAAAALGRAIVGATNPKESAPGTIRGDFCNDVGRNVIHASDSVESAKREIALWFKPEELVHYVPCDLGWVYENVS

[2] = molecular target: T2, DYNAMO1-Dnm1 string (Cyanidioschyzon merolae, UniProt A0A125YLX6); assay: malachite green phosphate release (GTPase activity); format: biochemical; conditions: 20 mM HEPES, pH 7.5, 30 mM KCl, 1 mM MgCl2, 1 mM DTT; 37 °C; DYNAMO1 at half the amount of Dnm1
T2 construct: gene CYME_CME019C; with Nucleoside diphosphate kinase-like protein DYNAMO1
T2 sequence (A0A125YLX6 entry or part of it, one chain of several): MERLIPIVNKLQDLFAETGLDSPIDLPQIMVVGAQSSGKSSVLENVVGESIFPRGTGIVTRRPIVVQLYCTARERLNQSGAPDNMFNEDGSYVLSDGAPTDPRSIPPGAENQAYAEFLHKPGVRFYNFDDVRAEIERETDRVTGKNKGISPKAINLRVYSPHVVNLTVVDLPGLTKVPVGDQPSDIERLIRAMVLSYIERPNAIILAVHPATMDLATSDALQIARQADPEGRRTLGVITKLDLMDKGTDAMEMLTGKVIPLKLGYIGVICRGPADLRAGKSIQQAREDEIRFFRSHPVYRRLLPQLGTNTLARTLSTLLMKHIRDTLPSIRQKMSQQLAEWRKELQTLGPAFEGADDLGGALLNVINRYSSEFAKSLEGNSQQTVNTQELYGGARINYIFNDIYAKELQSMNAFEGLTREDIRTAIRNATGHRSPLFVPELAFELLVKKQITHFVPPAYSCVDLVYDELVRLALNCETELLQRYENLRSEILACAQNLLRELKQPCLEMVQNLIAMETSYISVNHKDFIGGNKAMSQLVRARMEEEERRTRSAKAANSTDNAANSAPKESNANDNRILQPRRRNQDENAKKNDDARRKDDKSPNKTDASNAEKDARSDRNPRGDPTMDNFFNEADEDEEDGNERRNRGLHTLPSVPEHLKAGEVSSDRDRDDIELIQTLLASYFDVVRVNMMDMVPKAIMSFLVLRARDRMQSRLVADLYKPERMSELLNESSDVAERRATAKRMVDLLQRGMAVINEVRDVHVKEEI

[3] = molecular target: T2, DYNAMO1-Dnm1 string; assay: as above; format: biochemical; conditions: 20 mM HEPES, pH 7.5, 30 mM KCl, 1 mM MgCl2, 1 mM DTT; 37 °C; DYNAMO1 at half the amount of Dnm1; remark: listed apart in the source
[4] = molecular target: recombinant DYNAMO1 (dynamin-based ring motive-force organizer 1), GST removed (Cyanidioschyzon merolae); assay: SEC; 1 μg purified recombinant DYNAMO1 on a Sepharose 6 10/300 GL column, AKTA prime; standards thyroglobulin, γ-globulin, ovalbumin

Compound: Nc1ncnc2c1ncn2[C@@H]1O[C@H](COP(=O)(O)OP(=O)(O)OP(=O)(O)O)[C@@H](O)[C@H]1O [ATP]
LC-ESI-MS/MS of nucleotides (nucleoside diphosphate kinase activity) ([1]; co-substrate GDP): generated GTP upon addition of ATP plus GDP (Fig. 1e, f)

Compound: Nc1nc2c(ncn2[C@@H]2O[C@H](COP(=O)(O)OP(=O)(O)O)[C@@H](O)[C@H]2O)c(=O)[nH]1 [GDP]
LC-ESI-MS/MS of nucleotides (nucleoside diphosphate kinase activity) ([1]; co-substrate ATP): generated GTP upon addition of ATP plus GDP (Fig. 1e, f)

Compound: Nc1nc2c(ncn2[C@@H]2O[C@H](COP(=O)(O)OP(=O)(O)OP(=O)(O)O)[C@@H](O)[C@H]2O)c(=O)[nH]1 [GTP]
malachite green phosphate release (GTPase activity) [2]: the GTPase activity of Dnm1 was higher in DYNAMO1-Dnm1 and DYNAMO1 H116D-Dnm1 strings
malachite green phosphate release (GTPase activity) [3]: the GTPase activity of Dnm1 was higher in DYNAMO1-Dnm1 and DYNAMO1 H116D-Dnm1 strings

stoichiometry N [4]: 4
Compound: recombinant DYNAMO1 (dynamin-based ring motive-force organizer 1), GST removed (natural protein)
